Assay results: ChEMBL document CHEMBL1201861, “Genomics of Drug Sensitity in Cancer screening data, Wellcome Trust Sanger Institute”

Experiments:
Experiment in all cases: cells
DMS-79 = format: functional, cell-based; conditions: Homo sapiens;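 also: growth inhibition measured with a cell viability assay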
Description: SANGER: Inhibition of human DMS-79 cell growth in a cell viability assay.

DOHH-2 = format: functional, cell-based; conditions: Homo sapiens;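 also: growth inhibition of human DOHH-2 cells, read out with a cell viability assay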
Description: SANGER: Inhibition of human DOHH-2 cell growth in a cell viability assay.

DU-4475 = format: functional, cell-based; conditions: Homo sapiens
Description: SANGER: Inhibition of human DU-4475 cell growth in a cell viability assay.

EM-2 = format: functional, cell-based; conditions: Homo sapiens;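 also: growth inhibition of EM-2 cells, read out with a cell viability assay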
Description: SANGER: Inhibition of human EM-2 cell growth in a cell viability assay.

ES6 = format: functional, cell-based, Homo sapiens; conditions: Homo sapiens, ES6;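 also: growth inhibition of human ES6 cells, read out with a cell viability assay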
Description: SANGER: Inhibition of human ES6 cell growth in a cell viability assay.

EW-13 = format: functional, cell-based; conditions: Homo sapiens;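 also: growth inhibition of EW-13 cells, read out with a cell viability assay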
Description: SANGER: Inhibition of human EW-13 cell growth in a cell viability assay.

HL-60 = format: functional, cell-based; conditions: Homo sapiens;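 also: growth inhibition of human HL-60 cells, read out with a cell viability assay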
Description: SANGER: Inhibition of human HL-60 cell growth in a cell viability assay.

JVM-2 = format: functional, cell-based; conditions: Homo sapiens;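 also: growth inhibition of JVM-2 cells determined by a cell viability assay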
Description: SANGER: Inhibition of human JVM-2 cell growth in a cell viability assay.

KY821 = format: functional, cell-based; conditions: Homo sapiens;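 also: growth inhibition of human KY821 cells, read out by a cell viability assay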
LC-2-ad = format: functional, cell-based, Homo sapiens; conditions: Homo sapiens, LC-2-ad;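 also: growth inhibition of human LC-2-ad cells, read out with a cell viability assay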
Description: SANGER: Inhibition of human LC-2-ad cell growth in a cell viability assay.

LOX IMVI = format: functional, cell-based; conditions: Homo sapiens
Description: SANGER: Inhibition of human LOXIMVI cell growth in a cell viability assay.

LS-411N = format: functional, cell-based, Homo sapiens; conditions: Homo sapiens, LS-411N
MHH-PREB-1 = format: functional, cell-based; conditions: Homo sapiens;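 also: cell viability assay measuring inhibition of proliferation of human MHH-PREB-1 cells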
Description: SANGER: Inhibition of human MHH-PREB-1 cell growth in a cell viability assay.

MZ2-MEL = format: functional, cell-based, Homo sapiens; conditions: Homo sapiens, MZ2-MEL;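 also: growth inhibition of MZ2-MEL cells read out with a cell viability assay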
Description: SANGER: Inhibition of human MZ2-MEL cell growth in a cell viability assay.

MZ7-mel = format: functional, cell-based, Homo sapiens; conditions: Homo sapiens, MZ7-mel;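 also: growth inhibition of human MZ7-mel cells, measured by a cell viability assay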
NB5 = format: functional, cell-based, Homo sapiens; conditions: Homo sapiens, NB5;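 also: growth inhibition of NB5 cells, read out as cell viability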
Description: SANGER: Inhibition of human NB5 cell growth in a cell viability assay.

NCI-H1648 = format: functional, cell-based, Homo sapiens; conditions: Homo sapiens, NCI-H1648;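 also: cell viability assay measuring inhibition of NCI-H1648 cell growth, from the Sanger screening data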
Description: SANGER: Inhibition of human NCI-H1648 cell growth in a cell viability assay.

NTERA-2-cl-D1 = format: functional, cell-based, Homo sapiens; conditions: Homo sapiens, NTERA-2-cl-D1;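 also: inhibition of cell growth, measured with a cell viability assay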
Description: SANGER: Inhibition of human NTERA-S-cl-D1 cell growth in a cell viability assay.

ONS-76 = format: functional, cell-based, Homo sapiens; conditions: Homo sapiens, ONS-76;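 also: growth inhibition of human ONS-76 cells, read out with a cell viability assay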
SCC-15 = format: functional, cell-based, Homo sapiens; conditions: Homo sapiens, SCC-15;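 also: growth inhibition of SCC-15 cells, read out with a cell viability assay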
Description: SANGER: Inhibition of human SCC-15 cell growth in a cell viability assay.

SW 954 = format: functional, cell-based, Homo sapiens; conditions: Homo sapiens, SW 954;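 also: growth inhibition of SW954 human cancer cells, read out as cell viability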
Description: SANGER: Inhibition of human SW954 cell growth in a cell viability assay.

8-MG-BA = format: functional, cell-based, Homo sapiens; conditions: Homo sapiens, 8-MG-BA;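 also: growth inhibition of 8-MG-BA cells, read out with a cell viability assay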
Description: SANGER: Inhibition of human 8-MG-BA cell growth in a cell viability assay.

A388 = format: functional, cell-based, Homo sapiens; conditions: Homo sapiens, A388;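 also: growth inhibition of human A388 cells, read out with a cell viability assay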
Description: SANGER: Inhibition of human A388 cell growth in a cell viability assay.

ALL-PO = format: functional, cell-based; conditions: Homo sapiens;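 also: growth inhibition of ALL-PO cells, read out by a cell viability assay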
Description: SANGER: Inhibition of human ALL-PO cell growth in a cell viability assay.

BV-173 = format: functional, cell-based; conditions: Homo sapiens
Description: SANGER: Inhibition of human BV-173 cell growth in a cell viability assay.

TE-6 = format: functional, cell-based, Homo sapiens; conditions: Homo sapiens, TE-6;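 also: growth inhibition of TE-6 cells, read out with a cell viability assay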
Description: SANGER: Inhibition of human TE-6 cell growth in a cell viability assay.

TE-8 = format: functional, cell-based, Homo sapiens; conditions: Homo sapiens, TE-8;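 also: growth inhibition of TE-8 cells, measured with a cell viability readout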
Description: SANGER: Inhibition of human TE-8 cell growth in a cell viability assay.

CGTH-W-1 = format: functional, cell-based, Homo sapiens; conditions: Homo sapiens, CGTH-W-1;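 also: growth inhibition of human CGTH-W-1 cells measured by cell viability assay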
Description: SANGER: Inhibition of human CGTH-W-1 cell growth in a cell viability assay.

COLO-668 = format: functional, cell-based, Homo sapiens; conditions: Homo sapiens, COLO-668
Description: SANGER: Inhibition of human COLO-668 cell growth in a cell viability assay.

| Structure (SMILES) | IC50 (DMS-79) [nM] | IC50 (DOHH-2) [nM] | IC50 (DU-4475) [nM] | IC50 (EM-2) [nM] | IC50 (ES6) [nM] | IC50 (EW-13) [nM] | IC50 (HL-60) [nM] | IC50 (JVM-2) [nM] | IC50 (KY821) [nM] | IC50 (LC-2-ad) [nM] | IC50 (LOX IMVI) [nM] | IC50 (LS-411N) [nM] | IC50 (MHH-PREB-1) [nM] | IC50 (MZ2-MEL) [nM] | IC50 (MZ7-mel) [nM] | IC50 (NB5) [nM] | IC50 (NCI-H1648) [nM] | IC50 (NTERA-2-cl-D1) [nM] | IC50 (ONS-76) [nM] | IC50 (SCC-15) [nM] | other results |
| --- | --- | --- | --- | --- | --- | --- | --- | --- | --- | --- | --- | --- | --- | --- | --- | --- | --- | --- | --- | --- | --- |
| CNC(=O)c1cc(Oc2ccc(NC(=O)Nc3ccc(Cl)c(C(F)(F)F)c3)cc2)ccn1 [SORAFENIB] | > 4000 | > 4000 | > 4000 | 1360 | > 4000 | > 4000 | 3060 | > 4000 | > 4000 | > 4000 | > 4000 | > 4000 | > 4000 | > 4000 | 3660 | > 4000 | > 4000 | > 4000 | > 4000 | > 4000 | IC50 (SW 954): > 4000 nM; IC50 (8-MG-BA): > 4000 nM; IC50 (A388): 1590 nM; IC50 (ALL-PO): 31.8 nM; IC50 (BV-173): > 4000 nM; IC50 (TE-6): > 4000 nM; IC50 (TE-8): > 4000 nM; IC50 (CGTH-W-1): 250 nM; IC50 (COLO-668): > 4000 nM |
| Cc1cc(Nc2cc(N3CCN(C)CC3)nc(Sc3ccc(NC(=O)C4CC4)cc3)n2)n[nH]1 [TOZASERTIB] | > 2000 | 338 | 1020 | 266 | > 2000 | > 2000 | 1070 | > 2000 | > 2000 | 87.9 | > 2000 | 578 | > 2000 | > 2000 | > 2000 | 1640 | > 2000 | 14.3 | 665 | > 2000 | IC50 (SW 954): 122 nM; IC50 (8-MG-BA): > 2000 nM; IC50 (A388): 341 nM; IC50 (ALL-PO): 882 nM; IC50 (BV-173): 126 nM; IC50 (TE-6): > 2000 nM; IC50 (TE-8): 1800 nM; IC50 (CGTH-W-1): > 2000 nM; IC50 (COLO-668): > 2000 nM |
| CO[C@H]1C[C@@H]2CC[C@@H](C)[C@@](O)(O2)C(=O)C(=O)N2CCCC[C@H]2C(=O)O[C@H]([C@H](C)C[C@@H]2CC[C@@H](O)[C@H](OC)C2)CC(=O)[C@H](C)/C=C(\C)[C@@H](O)[C@@H](OC)C(=O)[C@H](C)C[C@H](C)/C=C/C=C/C=C/1C [SIROLIMUS] | > 100 | 3.35 | > 100 | 38.5 | 3.43 | > 100 | > 100 | > 100 | > 100 | 0.423 | > 100 | 77.6 | 32.4 | > 100 | > 100 | > 100 | > 100 | 0.443 | > 100 | > 100 | IC50 (SW 954): > 100 nM; IC50 (8-MG-BA): > 100 nM; IC50 (A388): 44.8 nM; IC50 (ALL-PO): > 100 nM; IC50 (BV-173): 84 nM; IC50 (TE-6): 2.77 nM; IC50 (TE-8): > 100 nM; IC50 (CGTH-W-1): > 100 nM; IC50 (COLO-668): > 100 nM |
| O=C(/C=C/c1ccccc1)NC(NC(=S)Nc1cccc2cccnc12)C(Cl)(Cl)Cl (stereo not given) [SALUBRINAL] | > 16000 | 10200 | > 16000 | > 16000 | > 16000 | > 16000 | 13300 | > 16000 | > 16000 | > 16000 | > 16000 | > 16000 | 6790 | > 16000 | > 16000 | > 16000 | > 16000 | 12900 | > 16000 | > 16000 | IC50 (SW 954): > 16000 nM; IC50 (8-MG-BA): 11000 nM; IC50 (A388): > 16000 nM; IC50 (ALL-PO): 4090 nM; IC50 (BV-173): 11500 nM; IC50 (TE-6): > 16000 nM; IC50 (TE-8): > 16000 nM; IC50 (CGTH-W-1): > 16000 nM; IC50 (COLO-668): > 16000 nM |
| CS(=O)(=O)CCNCc1ccc(-c2ccc3ncnc(Nc4ccc(OCc5cccc(F)c5)c(Cl)c4)c3c2)o1 [LAPATINIB] | > 2000 | > 2000 | > 2000 | > 2000 | > 2000 | > 2000 | > 2000 | > 2000 | > 2000 | > 2000 | > 2000 | > 2000 | > 2000 | > 2000 | > 2000 | > 2000 | 25.4 | > 2000 | > 2000 | > 2000 | IC50 (SW 954): > 2000 nM; IC50 (8-MG-BA): > 2000 nM; IC50 (A388): 723 nM; IC50 (ALL-PO): > 2000 nM; IC50 (BV-173): > 2000 nM; IC50 (TE-6): 1550 nM; IC50 (TE-8): > 2000 nM; IC50 (CGTH-W-1): > 2000 nM; IC50 (COLO-668): > 2000 nM |
